Experimental data: patent US20250235543A1, “MODIFIED PROTEINS AND PROTEIN DEGRADERS” (Cullgen (Shanghai), Inc., priority 2021, published 2025)

What was measured:
Assay type in all cases: cell-based
[1] = test system: cyclin D1, cyclin D2, cyclin D3; assay: Immunoblot of cyclin D protein levels in Calu-1 (and BT-549) cells; settings: for cyclin D downregulation effect after pre-treatment with MG-132, MLN4924 or TAK-243: proteasome, cullin E3 ligase or UAE inhibitor pre-treatment; for DC50 / reduction of cyclin D1, cyclin D2, and cyclin D3 protein levels: immunoblot, dose range; for DC50: 16 hours treatment; for reduction of cyclin D1, cyclin D2, and cyclin D3 protein levels: Calu-1 / BT-549 cells, 16 hours
Procedure: Specific exemplary heterobifunctional compounds were characterized in Calu-1, BT-549 and other cells. Cells that express cyclin D1-3 and CDK4/6 proteins were treated with heterobifunctional compounds disclosed herein at indicated concentrations for 16 hours. Cells were collected, lysed and subject to immunoblotting using an antibody specific to cyclin D1, cyclin D2, cyclin D3, CDK4, CDK6 or phosphorylated R^b proteins. Tubulin or GAPDH was used as the loading control. DMSO treatment was used as the negative control.
In a time-course study, Calu-1 cells were treated with 500 nM CPD-002, or 100 nM CPD-031 for indicated period of time prior to immunoblotting (FIG. 4A-4B).
The heterobifunctional compound-mediated degradation was dependent on the ubiquitin-proteasome system and cullin E3 ligase. […] In addition, DDB1 E3 ligase was critical for the degrader-induced cyclin D downregulation. Depletion of DDB1 using CRISPR-Cas9 technology attenuated the cyclin D degradation induced by CPD-031 (FIG. 5C).
To verify that heterobifunctional compound-mediated degradation is dependent on the binding to CDK4-cyclin D complex, we designed three negative control compounds, CPD-042, CPD-049 and CPD-380, which are derived from CPD-002 CPD-031 and CPD-343, respectively. These three control compounds bear the same DDB1 ligand and linker as their corresponding active heterobifunctional compounds but with modified warheads to impair the binding of the control compounds to CDK4. […] However, the binding to CDK4 is not sufficient for cyclin D degradation. Two cereblon (CRBN)-recruiting reference heterobifunctional compounds, CP-10 (Su, J Med Chem, 2019; CAS No.: 2366268-80-4) and BSJ-03-123 (Brand, Cell Chem Biol, 2019; CAS No.: 2361493-16-3) were analyzed in Calu-1 cells.

[2] = test system: Calu-1, NCI-H522, BT-549, Hs578T, MIA PaCa-2 or other cells; assay: Inhibition of cancer cell growth, 9-point serial dilution in 96-well plates; settings: 3 d treatment
cyclin D1 = assay: Cyclin D1 percentage degradation in Calu-1 cells (immunoblotting); settings: 200 nM, 16 hours
Outline: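 Cells were rinsed once in cold PBS and lysed in cold RIPA buffer containing protease and phosphatase inhibitors, with gentle agitation at 4° C. for 30 min. Lysates were spun at 13,000 rpm for 10 min at 4° C., protein was measured by BCA, and samples were boiled in Laemmli buffer at 99° C. for 5 min before SDS-PAGE immunoblotting.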

CDK4 = biological target: T1, CDK4 (Homo sapiens, UniProt P11802); assay: CDK4 percentage degradation in Calu-1 cells (immunoblotting); settings: Calu-1 cells, 200 nM, 16 hours; read-out: CDK4 Degradation (200 nM)
T1 construct: endogenous in cells; host or cells: Calu-1
Outline: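 Cultured cells were rinsed once in cold PBS and lysed in cold RIPA buffer containing protease and phosphatase inhibitors, with gentle agitation at 4° C. for 30 min. Lysates were centrifuged at 13,000 rpm for 10 min at 4° C., and protein was quantified by BCA. Samples were then separated by SDS-PAGE, detected with ECL, and the CDK4 bands quantified in Image Lab.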

Calu-1 = assay: Cell viability assay, Calu-1; settings: Homo sapiens, 72 h; Calu-1, NSCLC, 3 days; read-out: Cellular Anti-proliferation activity (IC50)
Outline: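 Cells were exposed to a serial dilution of test compound for 3-6 days, or 3 days with a 9-point series for CDK4/6 inhibitors and heterobifunctional compounds. Viability was read by luminescence (CellTiter-Lumi). IC50 came from nonlinear least-squares regression of dose-response curves, reported as mean±SD.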

NCI-H522 = assay: Cell viability assay, NCI-H522; settings: Homo sapiens, 72 h; NCI-H522, NSCLC, 3 days; read-out: Cellular Anti-proliferation activity (IC50)
Procedure: (§1) Cells were treated with CDK4/6 inhibitors palbociclib, ribociclib, or abemaciclib, or heterobifunctional compounds CPD-002 or CPD-031 following a 9-point serial dilution for 3 days.
(§2) Cells were seeded at a density of 2,000-5,000 cells per well in 96-well assay plates and treated with test compounds following a 10-point serial dilution for 3-6 days. Cell viability was determined using the CellTiter-Lumi assay kit according to the manufacturer's instructions. The dose-response curves were determined and IC50 values were calculated using the GraphPad Prism software following a nonlinear regression (least squares fit) method. Data presented was mean±standard deviation (SD) unless otherwise indicated.

MDA-MB-157 = assay: Cell viability assay, MDA-MB-157; settings: Homo sapiens, 72 h; MDA-MB-157, TNBC, 3 days; read-out: Cellular Anti-proliferation activity (IC50)
Procedure: as §1, §2

MDA-MB-453 = assay: Cell viability assay, MDA-MB-453; settings: Homo sapiens, 72 h; MDA-MB-453, TNBC, 3 days; read-out: Cellular Anti-proliferation activity (IC50)
Procedure: as §1, §2

Hs578T = assay: Cell viability assay, Hs578T; settings: Homo sapiens, Hs-578T, 72 h, TNBC, 3 days, read-out: Cellular Anti-proliferation activity (IC50)
Procedure: as §1, §2

BT-549 = assay: Cell viability assay, BT-549; settings: Homo sapiens, 72 h; BT-549, TNBC, 3 days; read-out: Cellular Anti-proliferation activity (IC50)
Procedure: as §1, §2

KURAMOCHI = assay: Cell viability assay, KURAMOCHI; settings: 72 h, OC, 3 days, read-out: Cellular Anti-proliferation activity (IC50)
Procedure: as §1, §2

OVCAR3 = assay: Cell viability assay, OVCAR3; settings: Homo sapiens, OVCAR-3, 72 h; OVCAR3, OC, 3 days; read-out: Cellular Anti-proliferation activity (IC50)
Procedure: as §1, §2

MIA PaCa-2 = assay: Cell viability assay, MIA PaCa-2; settings: Homo sapiens, 72 h; MIA PaCa-2, PC, 3 days; read-out: Cellular Anti-proliferation activity (IC50)
Procedure: as §1, §2

Cal-62 = assay: Cell viability assay, Cal-62; settings: Homo sapiens, 72 h; Cal-62, TC, 3 days; read-out: Cellular Anti-proliferation activity (IC50)
Procedure: as §1, §2

[3] = time-course, Calu-1 cells, 500 nM CPD-002

T1 sequence (P11802 2-303 limits assumed): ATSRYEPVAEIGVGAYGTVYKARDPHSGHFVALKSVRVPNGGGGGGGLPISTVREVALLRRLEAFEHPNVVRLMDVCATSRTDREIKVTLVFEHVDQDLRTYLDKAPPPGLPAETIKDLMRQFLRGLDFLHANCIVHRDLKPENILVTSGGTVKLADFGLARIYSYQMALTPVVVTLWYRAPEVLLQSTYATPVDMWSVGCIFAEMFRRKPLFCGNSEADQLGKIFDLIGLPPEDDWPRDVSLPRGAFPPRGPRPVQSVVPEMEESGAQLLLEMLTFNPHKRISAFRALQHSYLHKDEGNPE
T1 sequence (P24385 whole entry partner): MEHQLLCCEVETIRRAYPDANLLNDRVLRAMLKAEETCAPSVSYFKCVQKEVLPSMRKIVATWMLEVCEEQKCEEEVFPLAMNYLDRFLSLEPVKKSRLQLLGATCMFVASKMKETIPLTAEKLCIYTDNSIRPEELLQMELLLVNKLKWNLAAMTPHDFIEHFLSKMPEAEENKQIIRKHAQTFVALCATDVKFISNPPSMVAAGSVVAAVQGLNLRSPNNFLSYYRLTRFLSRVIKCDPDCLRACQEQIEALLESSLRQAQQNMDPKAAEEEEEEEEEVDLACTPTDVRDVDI
T1 sequence (Q16531 2-1140 limits assumed, further chain): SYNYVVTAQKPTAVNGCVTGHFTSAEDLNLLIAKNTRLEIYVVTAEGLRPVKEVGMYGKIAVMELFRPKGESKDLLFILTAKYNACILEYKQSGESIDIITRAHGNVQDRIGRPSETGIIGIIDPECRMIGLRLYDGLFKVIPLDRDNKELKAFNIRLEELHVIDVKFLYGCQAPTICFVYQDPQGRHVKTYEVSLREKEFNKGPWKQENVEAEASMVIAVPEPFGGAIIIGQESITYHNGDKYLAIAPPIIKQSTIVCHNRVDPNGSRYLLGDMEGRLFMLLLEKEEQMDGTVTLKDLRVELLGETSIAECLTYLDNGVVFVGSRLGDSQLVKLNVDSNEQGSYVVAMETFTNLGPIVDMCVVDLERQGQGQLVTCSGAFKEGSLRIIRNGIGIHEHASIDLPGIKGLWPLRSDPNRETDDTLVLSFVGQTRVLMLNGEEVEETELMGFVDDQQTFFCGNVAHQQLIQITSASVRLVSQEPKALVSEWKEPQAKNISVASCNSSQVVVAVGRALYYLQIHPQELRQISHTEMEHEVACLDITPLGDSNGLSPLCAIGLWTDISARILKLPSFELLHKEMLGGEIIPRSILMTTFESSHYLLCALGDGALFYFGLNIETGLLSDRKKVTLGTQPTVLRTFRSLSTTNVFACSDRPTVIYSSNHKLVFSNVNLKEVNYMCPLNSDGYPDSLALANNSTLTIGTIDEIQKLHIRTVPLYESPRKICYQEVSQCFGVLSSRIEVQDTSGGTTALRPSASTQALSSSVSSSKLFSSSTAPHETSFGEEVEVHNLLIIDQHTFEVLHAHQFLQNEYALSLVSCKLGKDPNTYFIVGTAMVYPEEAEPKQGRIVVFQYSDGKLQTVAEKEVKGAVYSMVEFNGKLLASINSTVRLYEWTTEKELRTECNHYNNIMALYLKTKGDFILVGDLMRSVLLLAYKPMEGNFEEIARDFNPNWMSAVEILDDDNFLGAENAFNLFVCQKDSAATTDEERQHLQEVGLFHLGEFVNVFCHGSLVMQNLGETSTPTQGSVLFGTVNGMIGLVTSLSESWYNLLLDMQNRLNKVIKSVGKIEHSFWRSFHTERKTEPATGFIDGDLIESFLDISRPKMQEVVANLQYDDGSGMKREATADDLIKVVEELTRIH

| Compound | cyclin D downregulation effect after pre-treatment with MG-132, MLN4924 or TAK-243 ([1]; Calu-1 cells) | DC50 [1] [nM] | reduction of cyclin D1, cyclin D2, and cyclin D3 protein levels [1] | time to complete degradation of cyclin D proteins [1, 3] [h] | time to significant degradation of cyclin D proteins [1, 3] [h] | potency at inhibition of multiple cancer cell lines versus CDK4/6 inhibitors [2] | CyclinD1 Degradation (200 nM) (cyclin D1) | inhibition at 0.2 µM (CDK4) [%] | IC50 (Calu-1) [nM] | IC50 (NCI-H522) [nM] | IC50 (MDA-MB-157) [nM] | IC50 (MDA-MB-453) [nM] | IC50 (Hs578T) [nM] | IC50 (BT-549) [nM] | IC50 (KURAMOCHI) [nM] | IC50 (OVCAR3) [nM] | IC50 (MIA PaCa-2) [nM] | IC50 (Cal-62) [nM] | cyclin D3 versus cyclin D1 and D2 degradation, time-course ([1]; Calu-1 cells, 100 nM CPD-031) |
| --- | --- | --- | --- | --- | --- | --- | --- | --- | --- | --- | --- | --- | --- | --- | --- | --- | --- | --- | --- |
| CC(=O)c1c(C)c2cnc(Nc3ccc(N4CCN(CC(=O)NCCOCCOCCOCCOCCOCCNc5ccc(C(=O)Nc6ncc(C)s6)c(C)c5)CC4)cn3)nc2n(C2CCCC2)c1=O [CPD-002, 4-((1-(4-(6-((6-Acetyl-8-cyclopentyl-5-methyl-7-oxo-7,8-dihydropyrido[2,3-d]pyrimidin-2-yl)amino)pyridin-3-yl)piperazin-1-yl)-2-oxo-6,9,12,15,18-pentaoxa-3-azaicosan-20-yl)amino)-2-methyl-N-(5-methylthiazol-2-yl)benzamide] | totally diminished | < 50 | particularly effective | ≤ 2 | ≤ 0.5 | significantly more potent than palbociclib, ribociclib, and abemaciclib | A (protein percentage degradation >=80%) | 50 to 80 | 68 | 638 | 151 | 741 | 215 | 690 | 920 | 107 | 175 | 50 | – |
| CC(=O)c1c(C)c2cnc(Nc3ccc(N4CCN(CC(=O)NCCOCCOCCOCCOCCOCCNc5ccc(C(=O)Nc6nc(C)c(C)s6)c(C)c5)CC4)cn3)nc2n(C2CCCC2)c1=O [CPD-031, 4-((1-(4-(6-((6-Acetyl-8-cyclopentyl-5-methyl-7-oxo-7,8-dihydropyrido[2,3-d]pyrimidin-2-yl)amino)pyridin-3-yl)piperazin-1-yl)-2-oxo-6,9,12,15,18-pentaoxa-3-azaicosan-20-yl)amino)-N-(4,5-dimethylthiazol-2-yl)-2-methylbenzamide] | totally diminished | < 20 | particularly effective | – | – | significantly more potent than palbociclib, ribociclib, and abemaciclib | A (protein percentage degradation >=80%) | > 80 | 9 | 155 | 28 | 300 | 38 | 110 | 190 | 39 | 57 | 5 | slower cyclin D3 degradation compared to cyclin D1 and D2 degradation |
